26 compounds from ChEMBL document CHEMBL2074066, “Fluorescent substrates of sister-P-glycoprotein (BSEP) evaluated as markers of active transport and inhibition: evidence for contingent unequal binding sites” (Pharm Res, 2003) can be followed below.

Format in all cases: functional, cell-based
Series [1] has as its target T1, Bile salt export pump (Homo sapiens, UniProt O95342). As to the kind of experiment: TP_TRANSPORTER: inhibitory effect of typical BSEP inhibitors (Verapamil & Cyclosporin A) in SK-E2 cells (expressing BSEP).
The target in series [2] is T1, Bile salt export pump. As to the kind of experiment: TP_TRANSPORTER: increase in dihydrofluorescein intracellular accumulation (dihydrofluorescein: 1 uM) in SK-E2 cells (expressing BSEP). The settings on record: for Activity: sk-e2.
Series [3] addresses T1, Bile salt export pump. The series can be described thus: TP_TRANSPORTER: increase in bodipy intracellular accumulation (Bodipy: 0.2 uM) in SK-E2 cells (expressing BSEP). To be noted: for Activity: human, sk-e2.

T1 sequence (O95342 whole entry): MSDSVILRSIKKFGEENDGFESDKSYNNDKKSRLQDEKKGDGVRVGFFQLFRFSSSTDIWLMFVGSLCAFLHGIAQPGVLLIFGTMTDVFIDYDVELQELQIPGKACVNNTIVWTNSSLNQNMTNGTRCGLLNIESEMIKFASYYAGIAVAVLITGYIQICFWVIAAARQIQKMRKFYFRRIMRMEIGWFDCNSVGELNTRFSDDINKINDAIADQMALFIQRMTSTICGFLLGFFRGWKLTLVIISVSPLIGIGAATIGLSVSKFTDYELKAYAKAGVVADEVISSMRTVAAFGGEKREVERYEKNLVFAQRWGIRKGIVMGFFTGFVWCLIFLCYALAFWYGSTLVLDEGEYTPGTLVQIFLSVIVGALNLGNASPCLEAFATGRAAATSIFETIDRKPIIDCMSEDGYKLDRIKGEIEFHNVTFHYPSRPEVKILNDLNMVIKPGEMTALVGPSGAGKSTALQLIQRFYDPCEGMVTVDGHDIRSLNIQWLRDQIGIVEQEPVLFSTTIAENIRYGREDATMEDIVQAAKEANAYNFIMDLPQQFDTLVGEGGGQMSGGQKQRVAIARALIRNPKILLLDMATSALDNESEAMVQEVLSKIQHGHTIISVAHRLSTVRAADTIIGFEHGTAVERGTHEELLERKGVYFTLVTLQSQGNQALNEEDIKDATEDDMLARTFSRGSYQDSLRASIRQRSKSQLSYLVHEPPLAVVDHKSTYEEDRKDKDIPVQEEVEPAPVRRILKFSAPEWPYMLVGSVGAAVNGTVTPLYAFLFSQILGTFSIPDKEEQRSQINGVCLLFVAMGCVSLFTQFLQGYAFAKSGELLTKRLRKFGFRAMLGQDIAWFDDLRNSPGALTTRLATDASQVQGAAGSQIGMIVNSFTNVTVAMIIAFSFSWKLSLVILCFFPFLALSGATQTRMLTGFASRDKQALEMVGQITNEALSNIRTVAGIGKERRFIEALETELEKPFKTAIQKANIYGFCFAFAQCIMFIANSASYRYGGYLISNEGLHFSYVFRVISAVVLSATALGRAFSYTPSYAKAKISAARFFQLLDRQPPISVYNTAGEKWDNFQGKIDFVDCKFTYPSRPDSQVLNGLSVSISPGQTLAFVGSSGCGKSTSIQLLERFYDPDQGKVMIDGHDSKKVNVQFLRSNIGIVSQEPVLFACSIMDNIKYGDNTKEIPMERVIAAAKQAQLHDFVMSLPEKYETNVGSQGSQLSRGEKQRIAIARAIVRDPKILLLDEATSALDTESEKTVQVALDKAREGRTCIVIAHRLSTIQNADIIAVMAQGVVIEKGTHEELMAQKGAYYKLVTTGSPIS

With `CCN1C(=C/C=C/c2n(CC)c3cc(Cl)c(Cl)cc3[n+]2CC)N(CC)c2cc(Cl)c(Cl)cc21.[I-]`, on Bile salt export pump [1], the Activity entry was “is not a substrate [-]”.
Regarding `CC(=O)OCOC(=O)CN(CC(=O)OCOC(C)=O)Cc1c(OC(C)=O)ccc2c1Oc1c(ccc(OC(C)=O)c1CN(CC(=O)OCOC(C)=O)CC(=O)OCOC(C)=O)C21OC(=O)c2ccccc21`, the Activity result on Bile salt export pump [1] is “is not a substrate [-]”.
Turning to `CC(=O)OCOC(=O)CN(CC(=O)OCOC(C)=O)c1ccc(C)cc1OCCOc1cc(-c2c3cc(Cl)c(=O)cc-3oc3cc(OCOC(C)=O)c(Cl)cc23)ccc1N(CC(=O)OCOC(C)=O)CC(=O)OCOC(C)=O`, the Activity entry at Bile salt export pump [1] is “is not a substrate [-]”.
Take `CC[n+]1cc(N(C)C)cc2ccc(/C=C/C=C/c3ccc(N(C)C)cc3)cc21`: on Bile salt export pump [1], the Activity entry is “is not a substrate [-]”.
As for `CN(CCOC(=O)CI)c1ccc([N+](=O)[O-])c2nonc12`, the Activity result on Bile salt export pump [1] was “is not a substrate [-]”.
Same read-out and setting: the value for `CC(=O)Oc1cc2c(cc1Cl)C(c1c(C(=O)O)cccc1C(=O)O)c1cc(Cl)c(OC(C)=O)cc1O2.CC(=O)Oc1cc2c(cc1Cl)C(c1cc(C(=O)O)ccc1C(=O)O)c1cc(Cl)c(OC(C)=O)cc1O2` was “is not a substrate [-]”; that for `CCOc1ccc(-c2nc3cc(-c4nc5cc(N6CCN(C)CC6)ccc5[nH]4)ccc3[nH]2)cc1` was “is not a substrate [-]”.
With `O=C(CI)Nc1ccc(-c2c3ccc(=O)cc-3oc3cc(O)ccc23)c(C(=O)O)c1` [5-Iodoacetamidofluorescein], the Activity entry at Bile salt export pump [1] was “is not a substrate [-]”.
For the compound `CN(C)CCCN1c2ccccc2Sc2ccc(Cl)cc21` [CHLORPROMAZINE], the values for the IC50 on Bile salt export pump [2] and at Bile salt export pump [3] were 33.5 µM and 30.9 µM, respectively.
Turning to `Cc1cc(C)n2c1C=C1C=CC(CCCCCCCCCCCC(=O)OC3CC[C@@]4(C)C(=CC[C@@H]5[C@@H]4CC[C@]4(C)C(C(C)CCCC(C)C)CC[C@@H]54)C3)=[N+]1[B-]2(F)F` (some centres undefined) [CHOLESTERYL BODIPY FL C12], the Activity entry on Bile salt export pump [1] was “is not a substrate [-]”.
Turning to `CN/C(=N/CCSCc1nc[nH]c1C)NC#N` [CIMETIDINE], the Activity entry on Bile salt export pump [2] and on Bile salt export pump [3] was “is not an inhibitor [-]” in each case.
As for `CC(C)/N=c1\cc2n(-c3ccc(Cl)cc3)c3ccccc3nc-2cc1Nc1ccc(Cl)cc1` [CLOFAZIMINE], the IC50 at Bile salt export pump [2] was 28.7 µM.
As for `COc1cccc2c1C(=O)c1c(O)c3c(c(O)c1C2=O)C[C@@](O)(C(C)=O)C[C@@H]3O[C@H]1C[C@H](N)[C@H](O)[C@H](C)O1` [DAUNORUBICIN], the Activity result on Bile salt export pump [1] was “is not a substrate [-]”.
`COc1cccc2c1C(=O)c1c(O)c3c(c(O)c1C2=O)C[C@@](O)(C(=O)CO)C[C@@H]3O[C@H]1C[C@H](N)[C@H](O)[C@H](C)O1` [DOXORUBICIN]: at Bile salt export pump [1], the Activity entry is “is not a substrate [-]”.
As to `O=C(O[C@@H]1Cc2c(O)cc(O)cc2O[C@@H]1c1cc(O)c(O)c(O)c1)c1cc(O)c(O)c(O)c1` [EPIGALOCATECHIN GALLATE], the Activity entry at Bile salt export pump [2] is “is not an inhibitor [-]”. At Bile salt export pump [3], the IC50 was 214 µM.
Consider `O=C1OC2(c3ccc(O)cc3Oc3cc(O)ccc32)c2ccccc21` [FLUORESCEIN], for which the Activity entry on Bile salt export pump [1] was “substrate [+]”.
Consider `O=C(O)c1ccccc1C1c2ccc(O)cc2Oc2cc(O)ccc21` [FLUORESCIN], for which the Activity entry at Bile salt export pump [1] is “substrate [+]”.
As for `C=C[C@H]1C[N@@]2CC[C@H]1C[C@@H]2[C@@H](O)c1ccnc2ccc(OC)cc12` [QUINIDINE], the Activity entry at Bile salt export pump [2] was “is not an inhibitor [-]”.
Turning to `COC(=O)[C@H]1[C@H]2C[C@@H]3c4[nH]c5cc(OC)ccc5c4CCN3C[C@H]2C[C@@H](OC(=O)c2cc(OC)c(OC)c(OC)c2)[C@@H]1OC` [RESERPINE], the IC50 on Bile salt export pump [2] turned out to be 10.2 µM. The Activity result on Bile salt export pump [3] is “is not an inhibitor [-]”.
In the case of `COC(=O)c1ccccc1-c1c2ccc(=N)cc-2oc2cc(N)ccc12.Cl` [RHODAMINE123], on Bile salt export pump [1], the Activity result is “is not a substrate [-]”.
Consider `CO[C@H]1/C=C/O[C@@]2(C)Oc3c(C)c(O)c4c(O)c(cc(O)c4c3C2=O)NC(=O)/C(C)=C\C=C\[C@H](C)[C@H](O)[C@@H](C)[C@@H](O)[C@@H](C)[C@H](OC(C)=O)[C@@H]1C` [RIFAMYCIN], for which the IC50 worked out at 12.2 µM on Bile salt export pump [2] and 206 µM at Bile salt export pump [3].
`C[C@H](CCC(=O)NCCS(=O)(=O)O)[C@H]1CC[C@H]2[C@@H]3CC[C@@H]4C[C@H](O)CC[C@]4(C)[C@H]3CC[C@]12C` [TAUROLITHOCHOLIC ACID]: on Bile salt export pump [2], the IC50 worked out at 189 µM. For the same compound, at Bile salt export pump [3], the Activity result was “is not an inhibitor [-]”.
Regarding `CN(C)c1ccc2c(-c3ccc(CCl)cc3)c3ccc(=[N+](C)C)cc-3oc2c1.[Br-]` [TETRAMETHYLROSAMINE], on Bile salt export pump [1], the Activity entry was “is not a substrate [-]”.
Take `Cc1c(C)c2c(c(C)c1O)CCC(C)(COc1ccc(CC3SC(=O)NC3=O)cc1)O2` (centres undefined) [TROGLITAZONE]: the IC50 at Bile salt export pump [2] stood at 66.4 µM.
As to `CC(C)[C@@H]1NC(=O)[C@H](C)OC(=O)[C@@H](C(C)C)NC(=O)[C@@H](C(C)C)OC(=O)[C@H](C(C)C)NC(=O)[C@H](C)OC(=O)[C@@H](C(C)C)NC(=O)[C@@H](C(C)C)OC(=O)[C@H](C(C)C)NC(=O)[C@H](C)OC(=O)[C@@H](C(C)C)NC(=O)[C@@H](C(C)C)OC1=O` [VALINOMYCIN], the IC50 on Bile salt export pump [2] was determined as 7.2 µM. Besides, the Activity result at Bile salt export pump [3] is “is not an inhibitor [-]”.
For `CC[C@]1(O)C[C@@H]2CN(CCc3c([nH]c4ccccc34)[C@@](C(=O)OC)(c3cc4c(cc3OC)N(C)[C@H]3[C@@](O)(C(=O)OC)[C@H](OC(C)=O)[C@]5(CC)C=CCN6CC[C@]43[C@@H]65)C2)C1` [VINBLASTINE], the IC50 on Bile salt export pump [2] was found to be 62 µM; on Bile salt export pump [3] it was 115 µM.
